Data from patent publication US20030007938A1, “Methods for treating fingernails and toenails” (priority 2001, published 2003).
Values joined by “and” are separate entries in the source; they are usually repeats but may differ in a detail not shown here. Equal entries are not always repeated.

System: index fingernail and cuticle
Assay: Fingernail growth of the index finger in human volunteers, daily topical treatment for four weeks
Assay type: in vivo
Experimental: This Example describes the use of a cream prepared with the complexes of peptone with copper (II) to improve nail growth in humans. The copper soy peptone complex (0.3% copper ion and 4% dry weight of peptone) was mixed into an application cream containing 55% (by weight) aloe vera gel, 12% squalane, 12% glycerol stearate, 5% PEG-100, 4% cetyl alcohol and 0.3% retinol. The placebo-treated control nails were treated with a similar cream that contained no copper-peptide complex. For testing experiments, the fingernail growth rates of the index finger were used as a measurement. In the first set of experiments, the copper-peptide complex was applied to the index fingernail and cuticle on the right hand while the left hand nail was untreated and used as a control. In the second set of experiments with different human volunteers, the copper-peptide cream was applied to the index fingernail and cuticle on the left hand while the right hand nail was treated with the placebo cream and used as a control. Nails were treated daily for four weeks. Nail length was measured from the end of the nail bed to the tip of the nail at its center by pushing a small plastic ruler under the nail and firmly against the nail bed. […] The effect of nail growth stimulation was approximately similar if either the right hand treated group or the left hand treated group was used. For testing experiments, the fingernail growth rates of the index finger were used as a measurement. In the experiments, the copper-peptide complex was applied to the index fingernail and cuticle on the right hand while the left hand nail was treated with the placebo cream and used as a control. Nails were treated daily for four weeks. Nail length was measured from the end of the nail bed to the tip of the nail at its center by pushing a small plastic ruler under the nail and firmly against the nail bed. […]

## GHK-Copper (II) [GHK-Copper complex]
GHK-Copper (II) cream for four weeks, one value per person, left hand placebo control
  Finger Nail Growth, Right Hand Treated: 3.1 millimeters in four weeks and 3.5 millimeters in four weeks and 3.7 millimeters in four weeks and 3.4 millimeters in four weeks and 2.9 millimeters in four weeks
Four weeks, readily apparent in all cases
  Visual inspection of treated nails versus control hand: appeared to be longer
Summary in words of the table, four weeks
  Nail growth of treated nails compared with control nails: better nail growth
